We go through 20 compounds from patent US7345042B2, “MCH antagonists for the treatment of obesity” (Schering Corporation, priority 2003, dated 2008).

Structures are written as SMILES. pKi: −log10 of the molar value.

For the first experiment, the target named is T1, MCH receptor (Homo sapiens, UniProt Q99705).
T1 construct: expressed in transfected cells; host or cells: CHO cells
T1 sequence (Q99705 whole entry): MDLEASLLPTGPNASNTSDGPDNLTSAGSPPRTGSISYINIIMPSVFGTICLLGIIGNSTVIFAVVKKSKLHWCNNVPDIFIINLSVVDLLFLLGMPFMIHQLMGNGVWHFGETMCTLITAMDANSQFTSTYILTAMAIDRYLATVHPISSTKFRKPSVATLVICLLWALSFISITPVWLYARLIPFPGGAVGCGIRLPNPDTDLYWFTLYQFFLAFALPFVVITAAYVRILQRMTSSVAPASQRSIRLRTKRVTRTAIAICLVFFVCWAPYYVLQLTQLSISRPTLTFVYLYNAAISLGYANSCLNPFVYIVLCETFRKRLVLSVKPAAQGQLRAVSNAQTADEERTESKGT
Kind of experiment: MCH Receptor Binding Assay ([125I]-MCH SPA, membranes from CHO cells expressing the MCH receptor). The note with it: CHO cell membranes, [125I]-MCH, read-out: MCH Receptor Activity (Ki rating). The method, then: MCH Receptor Binding Assay:
Membranes from CHO cells expressing the MCH receptor were prepared by lysing cells with 5 mM HEPES for 15 min at 4 C. Cell lysates were centrifuged ([…], 15 min) and the pellet was resuspended in 5 mM HEPES. For each 96-well plate (Microlite, Dynex Technologies), 1 mg of cell membranes were incubated with 10 mg of wheat germ agglutinin SPA beads (Amersham) for 5 min at 4 C in a volume of 10 ml of binding buffer (25 mM HEPES, 10 mM MGCl2, 10 mM NaCl, 5 mM MnCl2, 0.1% BSA). The membrane/bead mixture was centrifuged (1500×g, 3.5 min), the supernatant was aspirated, and the pellet was resuspended in 10 ml binding buffer. The centrifugation, aspiration and resuspension were then repeated. The membrane/bead mixture (100 μl) was then added to 96-well plates containing 50 μl of 500 pM [^125I]-MCH (NEN) and […] of the appropriate concentration of compound (4× the desired final concentration). Nonspecific binding was determined by including 1 μM MCH in the binding reaction. The binding reaction was incubated at room temperature for 2 h. Plates were then analyzed in a TOPCOUNT microplate scintillation counter (Packard). Data was analyzed and Ki values were determined using GraphPad Prim.
As for `CCCOc1ccsc1C(=O)N1CCC(N2CCN([C@@H](C)c3ccc(CCc4ccc5c(c4)OCO5)cc3)[C@H](C)C2)CC1` [Example 1], the pKi was 7.82 to 8.00.
Same read-out and setting: to `CCOc1ccsc1C(=O)N1CCC(N2CCN([C@@H](C)c3ccc(-c4cc(Cl)cc(Cl)c4)cc3)[C@H](C)C2)CC1` [Example 2] belongs 7.82 to 8.00; to `CCCOc1ccsc1C(=O)N1CCC(C)(N2CCN([C@@H](C)c3ccc(-c4cc(Cl)cc(Cl)c4)cc3)[C@H](C)C2)CC1` [Example 3], 8.00 to 8.22; to `CCCOc1ccsc1C(=O)N1CCC(N2CCN([C@@H](C)c3ccc(CCc4ccc(Cl)cc4)cc3)[C@H](C)C2)CC1` [Example 4], 7.82 to 8.00.
Same read-out and setting: to `C[C@@H]1CN(C2(C)CCN(C(=O)c3sccc3OCC3CC3)CC2)CCN1[C@@H](C)c1ccc(-c2cc(Cl)cc(Cl)c2)cc1` [Example 5] belongs 8.00 to 8.22; to `CCCOc1ccsc1C(=O)N1CCC(N2CCN([C@@H](C)c3ccc(-c4cc(Cl)cc(Cl)c4)cc3)[C@H](C)C2)CC1` [Example 6], 8.00 to 8.22; to `CCCCOc1ccsc1C(=O)N1CCC(N2CCN([C@@H](C)c3ccc(-c4cc(Cl)cc(Cl)c4)cc3)[C@H](C)C2)CC1` [Example 7], 7.82 to 8.00.
Same read-out and setting: to `CCCCOc1ccsc1C(=O)N1CCC(N2CCN([C@@H](C)c3ccc(-c4cc(Cl)cc(Cl)c4)cc3)[C@H](C)C2)CC1` [Example 8] belongs 8.00 to 8.22; to `CCCOc1ccsc1C(=O)N1CCC(N2CCN([C@@H](C)c3ccc(-c4ccc(F)c(Cl)c4)cc3)[C@H](C)C2)CC1` [Example 9], 7.82 to 8.00; to `CCOc1ccsc1C(=O)N1CCC(N2CCN([C@@H](C)c3ccc(-c4ccc(Cl)s4)cc3)[C@H](C)C2)CC1` [Example 10], < 7.82.
Consider `C[C@@H]1CN(C2CCN(C(=O)c3sccc3OCC3CC3)CC2)C[C@@H](C)N1Cc1ccc(-c2cc(Cl)cc(Cl)c2)cc1` [Example 11], for which the pKi was < 7.82.
On the same count and under the same terms, to `C[C@@H]1CN(C2CCN(C(=O)c3sccc3OCC3CC3)CC2)CCN1[C@@H](C)c1ccc(-c2cc(Cl)cc(Cl)c2)cc1` [Example 12] belongs 8.00 to 8.22; to `CCOc1ccsc1C(=O)N1CCC(N2CCN([C@@H](C)c3ccc(CCc4ccc(C(F)(F)F)cc4)cc3)[C@H](C)C2)CC1` [Example 13], 8.00 to 8.22.
As to `CCCOc1ccsc1C(=O)N1CCC(N2CCN([C@@H](C)c3ccc(CCc4ccc(C(F)(F)F)cc4)cc3)[C@H](C)C2)CC1` [Example 14], the pKi is 8.00 to 8.22.
Still for that read-out and setting: to `C[C@@H]1CN(C2(C)CCN(C(=O)c3sccc3OCC3CC3)CC2)CCN1[C@@H](C)c1ccc(-c2ccncc2)cc1` [Example 15] belongs 8.00 to 8.22.
The same measure, in the same setting: in the case of `CCOc1ccsc1C(=O)N1CCC(N2CCN([C@@H](C)c3ccc(-c4cc(Cl)cc(Cl)c4)cc3)[C@H](C)C2)CC1C` (stereo partly drawn) [Example 16] it was 8.00 to 8.22.
`CCOc1ccsc1C(=O)N1CCC(N2CCN([C@@H](C)c3ccc(-c4cc(Cl)cc(Cl)c4)cc3)[C@H](C)C2)CC1C` (stereo partly drawn) [Example 17]: the pKi is < 7.82.
Still for that read-out and setting: to `CCOc1ccsc1C(=O)N1CCC(N2C[C@@H](C)N([C@@H](C)c3ccc(-c4cc(Cl)cc(Cl)c4)cc3)[C@H](C)C2)CC1` [Example 18] belongs 7.82 to 8.00; to `CCCOc1cscc1C(=O)N1CCC(N2CCN([C@@H](C)c3ccc(-c4cc(Cl)cc(Cl)c4)cc3)[C@H](C)C2)CC1` [Example 19], 8.00 to 8.22.

The experiment is the same for the next values; noted with them: unit inferred, read-out: Ki values.
On to `CCOc1ccsc1C(=O)N1CCC(N2CCN([C@@H](C)c3ccc(-c4cc(Cl)cc(Cl)c4)cc3)[C@H](C)C2)CC1C` (stereo partly drawn) [Example 16], for which the pKi is 8.22.
On the same count and under the same terms, in the case of `CCCOc1cscc1C(=O)N1CCC(N2CCN([C@@H](C)c3ccc(-c4cc(Cl)cc(Cl)c4)cc3)[C@H](C)C2)CC1` [Example 20] it was 8.22.
